Experimental findings from ChEMBL document CHEMBL1145312, “Structure-activity relationships of triazolopyridine oxazole p38 inhibitors: identification of candidates for clinical development” (Bioorg Med Chem Lett, 2006) are described below.

The target in data set [1] is Tyrosine-protein kinase CSK (Homo sapiens, UniProt P41240). The experiment in a line: Inhibition of CSK.
Data set [2] is described as follows: Hepatocyte microsomal extraction ratio in human. The settings on record: hepatic microsomes.
In data set [3] the target is Mitogen-activated protein kinase 1 (Homo sapiens, UniProt P28482). Kind of data set: Inhibition of ERK2.
Chain of Mitogen-activated protein kinase 1 (P28482 whole entry): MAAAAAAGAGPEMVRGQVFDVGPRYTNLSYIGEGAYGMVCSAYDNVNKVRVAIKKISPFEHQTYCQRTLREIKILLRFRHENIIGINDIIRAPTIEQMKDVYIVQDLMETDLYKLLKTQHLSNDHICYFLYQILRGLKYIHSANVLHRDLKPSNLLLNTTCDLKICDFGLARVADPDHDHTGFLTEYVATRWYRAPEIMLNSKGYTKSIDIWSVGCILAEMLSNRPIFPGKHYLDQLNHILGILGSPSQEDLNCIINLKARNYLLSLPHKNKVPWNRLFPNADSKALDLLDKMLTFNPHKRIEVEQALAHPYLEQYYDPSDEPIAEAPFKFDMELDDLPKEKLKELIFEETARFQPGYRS
Data set [4] deals with RAC-alpha serine/threonine-protein kinase (Homo sapiens, UniProt P31749). Kind of data set: Inhibition of PKBalpha.
Chain of RAC-alpha serine/threonine-protein kinase (P31749 whole entry): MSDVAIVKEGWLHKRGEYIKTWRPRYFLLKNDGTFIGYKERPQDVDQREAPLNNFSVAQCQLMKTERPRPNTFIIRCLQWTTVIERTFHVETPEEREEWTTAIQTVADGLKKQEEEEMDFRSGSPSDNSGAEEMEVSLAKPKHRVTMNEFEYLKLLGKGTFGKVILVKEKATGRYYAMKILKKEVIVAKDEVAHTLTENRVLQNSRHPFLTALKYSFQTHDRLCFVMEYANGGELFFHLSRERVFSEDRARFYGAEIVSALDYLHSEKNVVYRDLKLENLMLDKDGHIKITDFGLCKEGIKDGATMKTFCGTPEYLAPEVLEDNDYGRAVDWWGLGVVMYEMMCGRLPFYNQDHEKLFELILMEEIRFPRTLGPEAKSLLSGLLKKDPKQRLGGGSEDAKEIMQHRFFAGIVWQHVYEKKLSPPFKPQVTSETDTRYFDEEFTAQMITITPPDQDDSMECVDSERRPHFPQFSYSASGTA
Data set [5] addresses T1, Serine/threonine-protein kinase Chk1 (Homo sapiens, UniProt O14757).
T1 sequence (O14757 whole entry): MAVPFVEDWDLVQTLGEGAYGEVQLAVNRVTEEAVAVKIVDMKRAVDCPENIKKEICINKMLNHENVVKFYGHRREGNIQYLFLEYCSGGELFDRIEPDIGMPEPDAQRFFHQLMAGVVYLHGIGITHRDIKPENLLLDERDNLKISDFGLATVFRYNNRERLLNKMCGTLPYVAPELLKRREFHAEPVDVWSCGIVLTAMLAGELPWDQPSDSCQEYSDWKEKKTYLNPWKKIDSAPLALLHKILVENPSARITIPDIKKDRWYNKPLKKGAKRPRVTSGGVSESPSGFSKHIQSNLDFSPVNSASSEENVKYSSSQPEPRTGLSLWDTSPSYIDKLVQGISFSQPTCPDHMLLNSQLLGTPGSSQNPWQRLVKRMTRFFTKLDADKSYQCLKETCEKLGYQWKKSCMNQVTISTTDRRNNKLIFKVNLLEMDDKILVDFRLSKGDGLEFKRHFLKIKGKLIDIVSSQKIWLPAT
Kind of data set: Inhibition of CHK1.

In data set [6] the target is Ribosomal protein S6 kinase alpha-5 (Homo sapiens, UniProt O75582). The experiment in a line: Inhibition of MSK1.
Chain of Ribosomal protein S6 kinase alpha-5 (O75582 whole entry): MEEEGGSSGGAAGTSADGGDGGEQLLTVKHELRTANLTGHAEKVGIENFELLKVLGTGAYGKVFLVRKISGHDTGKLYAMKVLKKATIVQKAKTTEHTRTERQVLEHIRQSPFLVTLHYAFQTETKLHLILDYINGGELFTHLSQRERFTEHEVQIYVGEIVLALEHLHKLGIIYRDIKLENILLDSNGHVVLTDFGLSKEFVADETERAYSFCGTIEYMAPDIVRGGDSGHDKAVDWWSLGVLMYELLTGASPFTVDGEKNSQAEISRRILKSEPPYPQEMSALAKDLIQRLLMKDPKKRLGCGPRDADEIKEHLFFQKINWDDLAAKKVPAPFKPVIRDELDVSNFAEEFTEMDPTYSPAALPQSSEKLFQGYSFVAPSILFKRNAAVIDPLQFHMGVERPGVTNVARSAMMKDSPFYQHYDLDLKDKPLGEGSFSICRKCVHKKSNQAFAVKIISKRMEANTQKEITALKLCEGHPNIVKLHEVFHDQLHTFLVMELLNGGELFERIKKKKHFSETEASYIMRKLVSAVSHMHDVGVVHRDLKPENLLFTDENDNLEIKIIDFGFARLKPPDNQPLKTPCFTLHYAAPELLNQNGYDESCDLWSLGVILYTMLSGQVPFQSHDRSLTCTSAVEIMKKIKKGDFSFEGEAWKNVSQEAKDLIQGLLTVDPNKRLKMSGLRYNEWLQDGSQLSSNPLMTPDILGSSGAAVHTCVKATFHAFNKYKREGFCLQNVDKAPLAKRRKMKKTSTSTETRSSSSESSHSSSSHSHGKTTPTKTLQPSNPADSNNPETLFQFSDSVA
Data set [7] concerns the target T2, MAP kinase-activated protein kinase 5 (Homo sapiens, UniProt Q8IW41).
T2 sequence (Q8IW41 whole entry): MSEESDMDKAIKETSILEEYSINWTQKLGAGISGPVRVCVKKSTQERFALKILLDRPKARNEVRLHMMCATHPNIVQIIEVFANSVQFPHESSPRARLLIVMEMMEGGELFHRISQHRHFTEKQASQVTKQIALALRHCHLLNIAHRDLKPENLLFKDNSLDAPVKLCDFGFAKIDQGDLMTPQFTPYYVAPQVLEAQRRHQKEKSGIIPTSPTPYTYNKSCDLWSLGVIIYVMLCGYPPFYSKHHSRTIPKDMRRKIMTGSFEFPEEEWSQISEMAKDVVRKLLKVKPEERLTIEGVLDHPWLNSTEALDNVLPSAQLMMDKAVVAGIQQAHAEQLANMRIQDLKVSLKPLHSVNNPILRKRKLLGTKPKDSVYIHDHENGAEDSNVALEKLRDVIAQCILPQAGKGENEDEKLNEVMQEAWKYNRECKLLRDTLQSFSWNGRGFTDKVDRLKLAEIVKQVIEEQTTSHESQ
Kind of data set: Inhibition of PRAK.

The nature of data set [8]: Plasma clearance in rat. The class given is ADME, organism-based.
A short description of data set [9]: Volume of distribution in rat. To be noted: in vivo, read-out: Vdss. The class given is ADME, organism-based.
In data set [10] the target is hERG (KCNH2) (Homo sapiens, UniProt Q12809). The experiment in a line: Inhibition of hERG channel current in HEK293 cells at 3 uM. The class given is toxicity, cell-based. The settings on record: HEK293 cells that express hERG.
Chain of hERG (KCNH2) (Q12809 whole entry): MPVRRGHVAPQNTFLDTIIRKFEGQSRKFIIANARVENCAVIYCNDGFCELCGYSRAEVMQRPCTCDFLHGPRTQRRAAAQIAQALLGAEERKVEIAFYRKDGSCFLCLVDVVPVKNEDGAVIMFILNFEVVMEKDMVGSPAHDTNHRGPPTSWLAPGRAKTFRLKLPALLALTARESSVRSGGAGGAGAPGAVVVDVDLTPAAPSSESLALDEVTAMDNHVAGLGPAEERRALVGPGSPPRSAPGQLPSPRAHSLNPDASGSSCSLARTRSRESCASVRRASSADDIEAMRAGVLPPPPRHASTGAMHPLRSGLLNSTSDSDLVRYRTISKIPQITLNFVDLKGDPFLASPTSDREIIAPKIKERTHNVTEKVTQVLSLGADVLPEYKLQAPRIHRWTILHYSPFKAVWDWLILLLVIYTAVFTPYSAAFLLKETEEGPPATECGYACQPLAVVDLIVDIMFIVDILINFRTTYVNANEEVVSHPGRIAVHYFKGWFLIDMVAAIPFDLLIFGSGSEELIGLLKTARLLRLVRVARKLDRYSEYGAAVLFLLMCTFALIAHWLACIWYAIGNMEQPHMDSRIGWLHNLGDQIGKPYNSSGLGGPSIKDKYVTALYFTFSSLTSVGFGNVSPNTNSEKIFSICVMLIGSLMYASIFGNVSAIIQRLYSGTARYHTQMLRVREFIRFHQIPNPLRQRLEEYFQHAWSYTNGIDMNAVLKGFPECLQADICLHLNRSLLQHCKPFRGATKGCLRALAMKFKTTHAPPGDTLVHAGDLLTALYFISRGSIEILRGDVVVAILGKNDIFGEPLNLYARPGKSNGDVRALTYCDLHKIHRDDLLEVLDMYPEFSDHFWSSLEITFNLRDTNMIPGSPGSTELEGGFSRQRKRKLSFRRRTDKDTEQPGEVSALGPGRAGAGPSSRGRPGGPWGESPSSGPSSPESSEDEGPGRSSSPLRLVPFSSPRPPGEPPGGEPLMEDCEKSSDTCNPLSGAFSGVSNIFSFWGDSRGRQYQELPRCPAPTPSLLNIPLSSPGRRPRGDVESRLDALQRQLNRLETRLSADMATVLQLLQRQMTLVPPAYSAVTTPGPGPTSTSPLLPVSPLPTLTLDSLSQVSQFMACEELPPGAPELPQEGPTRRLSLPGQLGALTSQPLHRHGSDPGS
Data set [11] is described as follows: Volume of distribution in monkey. The class given is ADME, organism-based, Macaca mulatta. The settings on record: rhesus monkey, in vivo; read-out: Vdss.
A short description of data set [12]: Half life in rat. The class given is ADME, organism-based. To be noted: in vivo.
Data set [13] can be described thus: Solubility in PBS buffer at ph 6.5. The class given is physicochemical.
Data set [14] in a line: Bioavailability in monkey. The class given is ADME, organism-based, Macaca mulatta. To be noted: rhesus monkey, in vivo.
Data set [15] in a line: Bioavailability in rat. The class given is ADME, organism-based. To be noted: in vivo.
The species named for data set [16] is Rattus norvegicus. The experiment in a line: Inhibition of LPS-induced TNFalpha release in rat. The class given is functional.
Data set [17] can be described thus: Plasma clearance in monkey. To be noted: rhesus monkey. The class given is ADME, organism-based, Macaca mulatta.
Data set [18] can be described thus: Half life in monkey. The class given is ADME, organism-based, Macaca mulatta. To be noted: rhesus monkey, in vivo.
The nature of data set [19]: Permeability from basolateral to apical side of Caco-2 cell membrane. The class given is ADME, cell-based. To be noted: human. For orientation: Passage across Caco-2 layers is used to estimate intestinal permeability.
Data set [20] can be described thus: Permeability from apical to basolateral side of Caco-2 cell membrane. The class given is ADME, cell-based. The settings on record: human.
Data set [21] addresses Casein kinase II (Homo sapiens, UniProt P19784+P67870+P68400). Kind of data set: Inhibition of CK2. The class given is protein-complex assay.

Converted amounts (≈) assume the structure as drawn. A value given as a limit tells only on which side of the number the result lay.

Chain of Tyrosine-protein kinase CSK (P41240 whole entry): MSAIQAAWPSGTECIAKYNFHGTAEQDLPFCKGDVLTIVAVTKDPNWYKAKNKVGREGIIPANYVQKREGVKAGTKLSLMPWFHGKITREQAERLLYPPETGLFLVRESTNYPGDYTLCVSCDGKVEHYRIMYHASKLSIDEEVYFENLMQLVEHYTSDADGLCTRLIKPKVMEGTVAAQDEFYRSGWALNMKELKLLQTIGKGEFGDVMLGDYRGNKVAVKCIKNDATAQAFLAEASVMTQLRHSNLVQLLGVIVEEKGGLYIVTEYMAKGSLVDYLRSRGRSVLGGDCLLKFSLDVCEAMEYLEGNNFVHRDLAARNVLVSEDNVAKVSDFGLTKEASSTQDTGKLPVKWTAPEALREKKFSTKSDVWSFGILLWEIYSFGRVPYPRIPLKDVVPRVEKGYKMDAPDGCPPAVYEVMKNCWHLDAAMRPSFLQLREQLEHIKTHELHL
Chain of Casein kinase II (P67870 whole entry): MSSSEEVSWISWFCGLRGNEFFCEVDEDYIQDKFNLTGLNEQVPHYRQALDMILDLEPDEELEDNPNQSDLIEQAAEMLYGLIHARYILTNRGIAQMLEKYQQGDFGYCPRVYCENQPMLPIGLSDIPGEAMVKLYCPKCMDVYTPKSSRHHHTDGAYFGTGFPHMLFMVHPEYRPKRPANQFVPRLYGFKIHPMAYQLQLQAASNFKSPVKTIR
Chain of Casein kinase II (P68400 whole entry): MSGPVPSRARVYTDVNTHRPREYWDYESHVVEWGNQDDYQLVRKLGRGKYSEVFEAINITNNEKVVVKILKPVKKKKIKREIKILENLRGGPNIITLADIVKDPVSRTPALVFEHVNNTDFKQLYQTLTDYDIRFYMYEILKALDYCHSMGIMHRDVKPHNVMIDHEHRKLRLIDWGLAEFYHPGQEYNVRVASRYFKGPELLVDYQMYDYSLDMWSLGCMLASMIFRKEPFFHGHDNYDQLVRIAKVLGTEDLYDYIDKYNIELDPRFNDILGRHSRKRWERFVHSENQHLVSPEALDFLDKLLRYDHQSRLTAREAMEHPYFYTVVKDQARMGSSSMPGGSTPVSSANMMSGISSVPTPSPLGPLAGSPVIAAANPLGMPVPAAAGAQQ
Chain of Casein kinase II (P19784 whole entry): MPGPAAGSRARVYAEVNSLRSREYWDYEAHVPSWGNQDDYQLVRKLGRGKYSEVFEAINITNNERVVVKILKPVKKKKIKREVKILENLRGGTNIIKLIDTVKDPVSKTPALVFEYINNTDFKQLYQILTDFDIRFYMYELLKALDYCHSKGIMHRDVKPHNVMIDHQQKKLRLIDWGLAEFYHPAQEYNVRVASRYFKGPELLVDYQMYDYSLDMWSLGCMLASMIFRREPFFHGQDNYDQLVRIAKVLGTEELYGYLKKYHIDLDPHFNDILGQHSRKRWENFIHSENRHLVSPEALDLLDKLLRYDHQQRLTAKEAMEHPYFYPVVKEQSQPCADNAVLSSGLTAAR

A word on the IC50: it is the concentration that inhibits the measured activity by half. `CC(C)(C)c1nnc2ccc(-c3ocnc3-c3ccc(F)cc3F)cn12`: the IC50 in [1], in data set [3], in data set [4], in data set [5], in [6] and in [7] was > 10 µM each time. The hepatic extraction ratio in [2] was < 0.3.
The term clearance denotes a measure of how efficiently the substance is removed, as volume per time. In general, inhibition refers to the change of the read-out against control, counted positive when it falls. As a reminder, the half-life is the time in which the quantity being followed falls by half. The term solubility denotes the dissolved amount per volume that the medium holds. In general, bioavailability refers to the share of a dose that reaches the circulation, judged against a reference dose that is usually intravenous. What is called ED50 is the dose that gives a 50% effect, or the effect in half of the subjects. On to `CC(C)(C)c1nnc2ccc(-c3ocnc3-c3cc(F)c(F)cc3F)cn12`, for which the half-inhibitory concentration (IC50) in [1], in data set [3], in data set [4], in data set [5], in data set [6] and in data set [7] was > 10 µM each time. Moreover, the values for the clearance in [8] and in data set [17] were 3 mL/min/kg and 3.4 mL/min/kg, respectively. Besides, the Vd in [9] is 0.6 L/kg; in [11] it was 1.2 L/kg. In data set [10], this compound yielded an inhibition at 3 µM of 5.9%. Also, the half-life in [12] is 2.6 h; in data set [18], 5.2 h. The compound also displayed a solubility in data set [13] of 41 µg/mL (≈ 110 µM). For the same compound, the values for the bioavailability in [14] and in data set [15] were 66% and 54%, respectively. In [16], this compound gave an ED50 of 0.1 mg/kg.
As to `CCNc1nnc2ccc(-c3ocnc3-c3ccc(F)cc3)cn12`, the IC50 in data set [1], in data set [3], in [4], in data set [5], in data set [6] and in data set [7] was > 10 µM in each case.
One may read the Papp B→A as the apparent permeability from the basolateral to the apical side of a cell layer. What is called Papp A→B is how fast a substance crosses the layer from the apical side. In the case of `CC(C)c1nnc2ccc(-c3c[nH]nc3-c3cc(F)ccc3F)cn12`, the IC50 in [1], in data set [3], in [4], in data set [5], in [6] and in data set [7] was > 10 µM throughout. The same compound returned a Papp B→A in [19] of 18 ×10⁻⁶ cm/s. The same compound came in with a Papp A→B in data set [20] of 6 ×10⁻⁶ cm/s.
As for `CC(C)c1nnc2ccc(-c3ocnc3-c3ccccc3)cn12`, the IC50 in [1], in [21], in data set [3], in [4], in data set [5] and in data set [6] was > 10 µM each time. Moreover, the IC50 in [7] was > 10 µM.
